Source: ChEMBL document CHEMBL4052775, “Design, synthesis and in vitro anti-mycobacterial evaluation of gatifloxacin-1H-1,2,3-triazole-isatin hybrids” (Bioorg Med Chem Lett, 2017)
Converted amounts (≈) assume the structure as drawn.

Experiments:
[1] = Selectivity index, ratio of CC50 for African green monkey Vero cells to MIC for Mycobacterium tuberculosis H37Rv ATCC 27294; type: toxicity; conditions: read-out: Selectivity Index
[2] = tested on: Mycobacterium tuberculosis; test: Antimycobacterial activity against Mycobacterium tuberculosis H37Rv ATCC 27294 by two fold dilution method; type: functional
[3] = Cytotoxicity against African green monkey Vero cells assessed as reduction in cell viability after 72 hrs by MTT assay; type: cell-based; conditions: chlorocebus sabaeus

Row | SMILES | selectivity ratio [1] | MIC [2] [µg/mL] | CC50 at 72 h [3] [µg/mL]
1 | COc1c(N2CCNC(C)C2)c(F)cc2c(=O)c(C(=O)O)cn(C3CC3)c12 (configuration not stated) [GATIFLOXACIN] | 160 | 0.78 (≈ 2.08 µM) | 125 (≈ 333 µM)
2 | CO[C@H]1/C=C/O[C@@]2(C)Oc3c(C)c(O)c4c(O)c(c(/C=N/N5CCN(C)CC5)c(O)c4c3C2=O)NC(=O)/C(C)=C\C=C\[C@H](C)[C@H](O)[C@@H](C)[C@@H](O)[C@@H](C)[C@H](OC(C)=O)[C@@H]1C [RIFAMPIN] | – | 0.39 (≈ 0.474 µM) | 500 (≈ 608 µM)
3 | NNC(=O)c1ccncc1 [ISONIAZID] | – | 0.05 (≈ 0.365 µM) | 125 (≈ 911 µM)
